Results published in ChEMBL document CHEMBL3822442, “Synthesis and Pharmacological Characterization of Novel Glucagon-like Peptide-2 (GLP-2) Analogues with Low Systemic Clearance” (J Med Chem, 2016).

Legend:
[1] = target: T1, Glucagon-like peptide 2 receptor (Homo sapiens, UniProt O95838); assay: Agonist activity at human GLP2R expressed in HEK293 cells after 5 hrs by luciferase reporter gene assay; assay type: cell-based
T1 sequence (O95838 whole entry): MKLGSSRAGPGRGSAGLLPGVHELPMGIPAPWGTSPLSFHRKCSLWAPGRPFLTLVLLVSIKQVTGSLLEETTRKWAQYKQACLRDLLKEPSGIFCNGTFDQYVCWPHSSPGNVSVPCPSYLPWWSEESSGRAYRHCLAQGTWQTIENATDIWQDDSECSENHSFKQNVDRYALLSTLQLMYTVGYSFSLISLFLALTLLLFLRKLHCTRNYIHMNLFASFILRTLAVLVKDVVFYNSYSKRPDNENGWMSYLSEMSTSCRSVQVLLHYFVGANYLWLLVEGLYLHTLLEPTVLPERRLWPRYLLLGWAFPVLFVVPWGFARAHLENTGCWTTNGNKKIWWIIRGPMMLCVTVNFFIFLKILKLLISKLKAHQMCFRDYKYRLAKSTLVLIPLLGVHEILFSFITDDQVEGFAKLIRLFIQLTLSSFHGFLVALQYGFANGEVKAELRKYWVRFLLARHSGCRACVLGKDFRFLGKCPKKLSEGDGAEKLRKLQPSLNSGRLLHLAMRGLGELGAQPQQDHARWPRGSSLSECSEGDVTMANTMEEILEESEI

[2] = target: Glucagon-like peptide 1 receptor (Homo sapiens, UniProt P43220); assay: Agonist activity at human GLP1R expressed in HEK293 cells after 5 hrs by luciferase reporter gene assay; assay type: cell-based
Sequence of Glucagon-like peptide 1 receptor (P43220 whole entry): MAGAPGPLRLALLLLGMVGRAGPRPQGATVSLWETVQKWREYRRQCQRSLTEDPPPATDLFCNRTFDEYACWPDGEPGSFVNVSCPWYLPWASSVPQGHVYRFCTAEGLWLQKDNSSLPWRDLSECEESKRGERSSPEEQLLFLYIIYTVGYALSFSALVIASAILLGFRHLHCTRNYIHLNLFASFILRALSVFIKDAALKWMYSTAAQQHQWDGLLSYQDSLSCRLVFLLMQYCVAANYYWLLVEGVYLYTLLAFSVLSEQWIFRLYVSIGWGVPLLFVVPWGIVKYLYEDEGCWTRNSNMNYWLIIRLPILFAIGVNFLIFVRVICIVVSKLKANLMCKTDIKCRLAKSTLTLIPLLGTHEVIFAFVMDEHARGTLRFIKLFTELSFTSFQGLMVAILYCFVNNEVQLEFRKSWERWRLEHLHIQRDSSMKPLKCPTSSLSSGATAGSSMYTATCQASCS

| Structure (SMILES) | EC50 [1] [nM] | EC50 [2] [nM] |
| --- | --- | --- |
| CCCC[C@H](NC(=O)[C@H](CCC(=O)O)NC(=O)[C@H](CC(=O)O)NC(=O)[C@H](CO)NC(=O)[C@H](Cc1ccccc1)NC(=O)[C@H](CO)NC(=O)CNC(=O)[C@H](CC(=O)O)NC(=O)CNC(=O)[C@@H](N)Cc1cnc[nH]1)C(=O)N[C@H](Cc1cccs1)C(=O)N[C@H](C(=O)N[C@H](C(=O)N[C@@H](CC(C)C)C(=O)N[C@@H](CC(=O)O)C(=O)N[C@@H](Cc1ccccc1)C(=O)N[C@@H](CC(C)C)C(=O)N[C@@H](C)C(=O)N[C@@H](C)C(=O)N[C@@H](CCCNC(=N)N)C(=O)N[C@@H](CC(=O)O)C(=O)N[C@@H](Cc1ccccc1)C(=O)N[C@H](C(=O)N[C@@H](CC(N)=O)C(=O)N[C@@H](Cc1c[nH]c2ccccc12)C(=O)N[C@@H](CC(C)C)C(=O)N[C@H](C(=O)N[C@@H](CCC(N)=O)C(=O)N[C@H](C(=O)N[C@@H](CCCCN)C(N)=O)[C@@H](C)O)[C@@H](C)CC)[C@@H](C)CC)[C@@H](C)CC)[C@@H](C)O | 0.08 | > 1000 |
| CCCC[C@H](NC(=O)[C@H](CCC(=O)O)NC(=O)[C@H](CC(=O)O)NC(=O)[C@H](CO)NC(=O)[C@H](Cc1ccccc1)NC(=O)[C@H](CO)NC(=O)CNC(=O)[C@H](CC(=O)O)NC(=O)CNC(=O)[C@@H](N)Cc1cnc[nH]1)C(=O)N[C@@H](CC(N)=O)C(=O)N[C@H](C(=O)N[C@H](C(=O)N[C@@H](CC(C)C)C(=O)N[C@@H](CC(=O)O)C(=O)N[C@@H](Cc1ccc(-c2ccccc2)cc1)C(=O)N[C@@H](CC(C)C)C(=O)N[C@@H](C)C(=O)N[C@@H](C)C(=O)N[C@@H](CCCNC(=N)N)C(=O)N[C@@H](CC(=O)O)C(=O)N[C@@H](Cc1ccccc1)C(=O)N[C@H](C(=O)N[C@@H](CC(N)=O)C(=O)N[C@@H](Cc1c[nH]c2ccccc12)C(=O)N[C@@H](CC(C)C)C(=O)N[C@H](C(=O)N[C@@H](CCC(N)=O)C(=O)N[C@H](C(=O)N[C@@H](CCCCN)C(N)=O)[C@@H](C)O)[C@@H](C)CC)[C@@H](C)CC)[C@@H](C)CC)[C@@H](C)O | 0.35 | > 1000 |
| CCCC[C@H](NC(=O)[C@H](CCC(=O)O)NC(=O)[C@H](CC(=O)O)NC(=O)[C@H](CO)NC(=O)[C@H](Cc1ccccc1)NC(=O)[C@H](CO)NC(=O)CNC(=O)[C@H](CC(=O)O)NC(=O)CNC(=O)[C@@H](N)Cc1c[nH]cn1)C(=O)N[C@@H](CC(N)=O)C(=O)N[C@H](C(=O)N[C@H](C(=O)N[C@@H](CC(C)C)C(=O)N[C@@H](CC(=O)O)C(=O)N[C@@H](Cc1ccc2ccccc2c1)C(=O)N[C@@H](CC(C)C)C(=O)N[C@@H](C)C(=O)N[C@@H](C)C(=O)N[C@@H](CCCNC(=N)N)C(=O)N[C@@H](CC(=O)O)C(=O)N[C@@H](Cc1ccccc1)C(=O)N[C@H](C(=O)N[C@@H](CC(N)=O)C(=O)N[C@@H](Cc1c[nH]c2ccccc12)C(=O)N[C@@H](CC(C)C)C(=O)N[C@H](C(=O)N[C@@H](CCC(N)=O)C(=O)N[C@H](C(=O)N[C@@H](CCCCN)C(N)=O)[C@@H](C)O)[C@@H](C)CC)[C@@H](C)CC)[C@@H](C)CC)[C@@H](C)O | 0.13 | > 1000 |
| CCCC[C@H](NC(=O)[C@H](CCC(=O)O)NC(=O)[C@H](CC(=O)O)NC(=O)[C@H](CO)NC(=O)[C@H](Cc1ccccc1)NC(=O)[C@H](CO)NC(=O)CNC(=O)[C@H](CC(=O)O)NC(=O)CNC(=O)[C@@H](N)Cc1cnc[nH]1)C(=O)N[C@@H](CC(N)=O)C(=O)N[C@H](C(=O)N[C@H](C(=O)N[C@@H](CC(C)C)C(=O)N[C@@H](CC(=O)O)C(=O)N[C@@H](Cc1cccc2ccccc12)C(=O)N[C@@H](CC(C)C)C(=O)N[C@@H](C)C(=O)N[C@@H](C)C(=O)N[C@@H](CCCNC(=N)N)C(=O)N[C@@H](CC(=O)O)C(=O)N[C@@H](Cc1ccccc1)C(=O)N[C@H](C(=O)N[C@@H](CC(N)=O)C(=O)N[C@@H](Cc1c[nH]c2ccccc12)C(=O)N[C@@H](CC(C)C)C(=O)N[C@H](C(=O)N[C@@H](CCC(N)=O)C(=O)N[C@H](C(=O)N[C@@H](CCCCN)C(N)=O)[C@@H](C)O)[C@@H](C)CC)[C@@H](C)CC)[C@@H](C)CC)[C@@H](C)O | 0.19 | > 1000 |
| CCCC[C@H](NC(=O)[C@H](CCC(=O)O)NC(=O)[C@H](CC(=O)O)NC(=O)[C@H](CO)NC(=O)[C@H](Cc1ccccc1)NC(=O)[C@H](CO)NC(=O)CNC(=O)[C@H](CC(=O)O)NC(=O)CNC(=O)[C@@H](N)Cc1cnc[nH]1)C(=O)N[C@@H](CC(N)=O)C(=O)N[C@H](C(=O)N[C@H](C(=O)N[C@@H](CC(C)C)C(=O)N[C@@H](CC(=O)O)C(=O)N[C@@H](CC1CCCCC1)C(=O)N[C@@H](CC(C)C)C(=O)N[C@@H](C)C(=O)N[C@@H](C)C(=O)N[C@@H](CCCNC(=N)N)C(=O)N[C@@H](CC(=O)O)C(=O)N[C@@H](Cc1ccccc1)C(=O)N[C@H](C(=O)N[C@@H](CC(N)=O)C(=O)N[C@@H](Cc1c[nH]c2ccccc12)C(=O)N[C@@H](CC(C)C)C(=O)N[C@H](C(=O)N[C@@H](CCC(N)=O)C(=O)N[C@H](C(=O)N[C@@H](CCCCN)C(N)=O)[C@@H](C)O)[C@@H](C)CC)[C@@H](C)CC)[C@@H](C)CC)[C@@H](C)O | 0.1 | > 1000 |
| CCCC[C@H](NC(=O)[C@H](CCC(=O)O)NC(=O)[C@H](CC(=O)O)NC(=O)[C@H](CO)NC(=O)[C@H](Cc1ccccc1)NC(=O)[C@H](CO)NC(=O)CNC(=O)[C@H](CC(=O)O)NC(=O)CNC(=O)[C@@H](N)Cc1cnc[nH]1)C(=O)N[C@H](Cc1ccccc1)C(=O)N[C@H](C(=O)N[C@H](C(=O)N[C@@H](CC(C)C)C(=O)N[C@@H](CC(=O)O)C(=O)N[C@@H](CC(C)C)C(=O)N[C@@H](CC(C)C)C(=O)N[C@@H](C)C(=O)N[C@@H](C)C(=O)N[C@@H](CCCNC(=N)N)C(=O)N[C@@H](CC(=O)O)C(=O)N[C@@H](Cc1ccccc1)C(=O)N[C@H](C(=O)N[C@@H](CC(N)=O)C(=O)N[C@@H](Cc1c[nH]c2ccccc12)C(=O)N[C@@H](CC(C)C)C(=O)N[C@H](C(=O)N[C@@H](CCC(N)=O)C(=O)N[C@H](C(=O)N[C@@H](CCCCN)C(=O)N[C@H](C(=O)N[C@H](C(=O)N[C@@H](CC(=O)O)C(=O)NCCOCCOCCOCCOCCC(N)=O)[C@@H](C)O)[C@@H](C)CC)[C@@H](C)O)[C@@H](C)CC)[C@@H](C)CC)[C@@H](C)CC)[C@@H](C)O | 0.03 | > 1000 |
| CCCC[C@H](NC(=O)[C@H](CCC(=O)O)NC(=O)[C@H](CC(=O)O)NC(=O)[C@H](CO)NC(=O)[C@H](Cc1ccccc1)NC(=O)[C@H](CO)NC(=O)CNC(=O)[C@H](CC(=O)O)NC(=O)CNC(=O)[C@@H](N)Cc1c[nH]cn1)C(=O)N[C@@H](CC(N)=O)C(=O)N[C@H](C(=O)N[C@H](C(=O)N[C@@H](CC(C)C)C(=O)N[C@@H](CC(=O)O)C(=O)N[C@@H](Cc1ccc(N)cc1)C(=O)N[C@@H](CC(C)C)C(=O)N[C@@H](C)C(=O)N[C@@H](C)C(=O)N[C@@H](CCCNC(=N)N)C(=O)N[C@@H](CC(=O)O)C(=O)N[C@@H](Cc1ccccc1)C(=O)N[C@H](C(=O)N[C@@H](CC(N)=O)C(=O)N[C@@H](Cc1c[nH]c2ccccc12)C(=O)N[C@@H](CC(C)C)C(=O)N[C@H](C(=O)N[C@@H](CCC(N)=O)C(=O)N[C@H](C(=O)N[C@@H](CCCCN)C(N)=O)[C@@H](C)O)[C@@H](C)CC)[C@@H](C)CC)[C@@H](C)CC)[C@@H](C)O | 0.13 | > 1000 |
| CCCC[C@H](NC(=O)[C@H](CCC(=O)O)NC(=O)[C@H](CC(=O)O)NC(=O)[C@H](CO)NC(=O)[C@H](Cc1ccccc1)NC(=O)[C@H](CO)NC(=O)CNC(=O)[C@H](CC(=O)O)NC(=O)CNC(=O)[C@@H](N)Cc1cnc[nH]1)C(=O)N[C@H](Cc1ccccc1)C(=O)N[C@H](C(=O)N[C@H](C(=O)N[C@@H](CC(C)C)C(=O)N[C@@H](CC(=O)O)C(=O)N[C@@H](CC(C)C)C(=O)N[C@@H](CC(C)C)C(=O)N[C@@H](C)C(=O)N[C@@H](C)C(=O)N[C@@H](CCCNC(=N)N)C(=O)N[C@@H](CC(=O)O)C(=O)N[C@@H](Cc1ccccc1)C(=O)N[C@H](C(=O)N[C@@H](CC(N)=O)C(=O)N[C@@H](Cc1c[nH]c2ccccc12)C(=O)N[C@@H](CC(C)C)C(=O)N[C@H](C(=O)N[C@@H](CCC(N)=O)C(=O)N[C@H](C(=O)N[C@@H](CCCCN)C(=O)N[C@H](C(=O)N[C@H](C(=O)N[C@@H](CC(=O)O)C(=O)NCC)[C@@H](C)O)[C@@H](C)CC)[C@@H](C)O)[C@@H](C)CC)[C@@H](C)CC)[C@@H](C)CC)[C@@H](C)O | 0.05 | > 1000 |
| CCCC[C@H](NC(=O)[C@H](CCC(=O)O)NC(=O)[C@H](CC(=O)O)NC(=O)[C@H](CO)NC(=O)[C@H](Cc1ccccc1)NC(=O)[C@H](CO)NC(=O)CNC(=O)[C@H](CC(=O)O)NC(=O)CNC(=O)[C@@H](N)Cc1cnc[nH]1)C(=O)N[C@H](Cc1ccc(Cl)cc1)C(=O)N[C@H](C(=O)N[C@H](C(=O)N[C@@H](CC(C)C)C(=O)N[C@@H](CC(=O)O)C(=O)N[C@@H](CC(N)=O)C(=O)N[C@@H](CC(C)C)C(=O)N[C@@H](C)C(=O)N[C@@H](C)C(=O)N[C@@H](CCCNC(=N)N)C(=O)N[C@@H](CC(=O)O)C(=O)N[C@@H](Cc1ccccc1)C(=O)N[C@H](C(=O)N[C@@H](CC(N)=O)C(=O)N[C@@H](Cc1c[nH]c2ccccc12)C(=O)N[C@@H](CC(C)C)C(=O)N[C@H](C(=O)N[C@@H](CCC(N)=O)C(=O)N[C@H](C(=O)N[C@@H](CCCCN)C(N)=O)[C@@H](C)O)[C@@H](C)CC)[C@@H](C)CC)[C@@H](C)CC)[C@@H](C)O | 0.09 | 60 |
